According to the supplement of paper PMC13380429:

Key:
Conditions in all cases: 72 h
Caco-2 [1] = test: cell viability relative to DMSO; higher = less toxic
Calu-3 [2] = test: as above
HepG2 [3] = test: as above
U2OS [4] = test: as above
Vero E6 [5] = test: as above
Caco-2 [6] = test: relative viability EC50 (midpoint between 100% and the lowest measured viability); higher = less toxic
Calu-3 [7] = test: as above
HepG2 [8] = test: as above
U2OS [9] = test: as above
Vero E6 [10] = test: as above
Caco-2 [11] = test: drug sensitivity score (DSS) for viability; higher = more toxic; extreme values may be limits of the assay
Calu-3 [12] = test: as above
HepG2 [13] = test: as above
U2OS [14] = test: as above
Vero E6 [15] = test: as above

Row | SMILES | cell viability (Caco-2 [1]; 1 nM) [%] | cell viability (Caco-2 [1]; 10 nM) [%] | cell viability (Caco-2 [1]; 100 nM) [%] | cell viability (Caco-2 [1]; 1000 nM) [%] | cell viability (Caco-2 [1]; 10000 nM) [%] | cell viability (Calu-3 [2]; 1 nM) [%] | cell viability (Calu-3 [2]; 10 nM) [%] | cell viability (Calu-3 [2]; 100 nM) [%] | cell viability (Calu-3 [2]; 1000 nM) [%] | cell viability (Calu-3 [2]; 10000 nM) [%] | cell viability (HepG2 [3]; 1 nM) [%] | cell viability (HepG2 [3]; 10 nM) [%] | cell viability (HepG2 [3]; 100 nM) [%] | cell viability (HepG2 [3]; 1000 nM) [%] | cell viability (HepG2 [3]; 10000 nM) [%] | cell viability (U2OS [4]; 1 nM) [%] | cell viability (U2OS [4]; 10 nM) [%] | cell viability (U2OS [4]; 100 nM) [%] | cell viability (U2OS [4]; 1000 nM) [%] | cell viability (U2OS [4]; 10000 nM) [%] | cell viability (Vero E6 [5]; 1 nM) [%] | cell viability (Vero E6 [5]; 10 nM) [%] | cell viability (Vero E6 [5]; 100 nM) [%] | cell viability (Vero E6 [5]; 1000 nM) [%] | cell viability (Vero E6 [5]; 10000 nM) [%] | relative viability EC50 (Caco-2 [6]) [µM] | relative viability EC50 (Calu-3 [7]) [µM] | relative viability EC50 (HepG2 [8]) [µM] | relative viability EC50 (U2OS [9]) [µM] | relative viability EC50 (Vero E6 [10]) [µM] | drug sensitivity score (Caco-2 [11]) | drug sensitivity score (Calu-3 [12]) | drug sensitivity score (HepG2 [13]) | drug sensitivity score (U2OS [14]) | drug sensitivity score (Vero E6 [15])
1 | CNC(=O)c1c(C)oc2cc(Oc3ncnc4cc(OC)c(OC)cc34)ccc12 [fruquintinib] | 90 | 97.4 | 97.8 | 98.9 | 94.7 | 103 | 103 | 98.7 | 107 | 98.8 | 107 | 109 | 100 | 86.5 | 103 | 102 | 104 | 102 | 102 | 90.8 | 96.1 | 93.4 | 102 | 94.5 | 91.6 | > 10 | > 10 | > 10 | > 10 | > 10 | 0 | 0 | 0 | 0 | 0
2 | COc1cc2c(=O)c(-c3ccc(O)cc3)coc2cc1O [glycitein] | 86.4 | 97.3 | 101 | 96 | 94.2 | 92.9 | 99.6 | 101 | 101 | 96.7 | 105 | 103 | 99.2 | 111 | 92.9 | 98.1 | 99.3 | 102 | 98.2 | 99.5 | 102 | 103 | 98.2 | 99.6 | 94.4 | > 10 | > 10 | > 10 | > 10 | > 10 | 0 | 0 | 0 | 0 | 0
3 | CC(C)C[C@@H](NC(=O)[C@H](C)NC(=O)CNC(=O)[C@@H](NC=O)C(C)C)C(=O)N[C@@H](C)C(=O)N[C@@H](C(=O)N[C@H](C(=O)N[C@@H](C(=O)N[C@@H](Cc1c[nH]c2ccccc12)C(=O)N[C@H](CC(C)C)C(=O)N[C@@H](Cc1c[nH]c2ccccc12)C(=O)N[C@H](CC(C)C)C(=O)N[C@@H](Cc1c[nH]c2ccccc12)C(=O)N[C@H](CC(C)C)C(=O)N[C@@H](Cc1c[nH]c2ccccc12)C(=O)NCCO)C(C)C)C(C)C)C(C)C [gramicidin] | 90 | 118 | 54.6 | 106 | 90.7 | 109 | 94.2 | 87.9 | 95.7 | 42.9 | 101 | 100 | 26.4 | 114 | 121 | 97.5 | 94.3 | 32.4 | 97.4 | 20.3 | 99.2 | 94.3 | 94 | 92.5 | 98.3 | > 10 | 2.55 | > 10 | 0.466 | > 10 | 0 | 3.7 | 0 | 12.3 | 0
4 | N=C(N)NCCN1CCCCCCC1 [guanethidine] | 92.3 | 96.6 | 91 | 91.8 | 101 | 104 | 102 | 99.6 | 95 | 97.3 | 99.3 | 102 | 96.4 | 106 | 93.6 | 102 | 96.6 | 99.7 | 98.8 | 103 | 105 | 97.2 | 95.2 | 109 | 101 | > 10 | > 10 | > 10 | > 10 | > 10 | 0 | 0 | 0 | 0 | 0
5 | N=C(N)NCCSSCCNC(=N)N [guanidinoethyldisulfide-bicarbonate] | 101 | 87.2 | 93.6 | 101 | 91.8 | 99.7 | 106 | 99.9 | 98.6 | 108 | 93 | 101 | 96.4 | 97.9 | 93 | 106 | 96.8 | 100 | 96.8 | 102 | 97.5 | 96.3 | 102 | 96.2 | 91.4 | > 10 | > 10 | > 10 | > 10 | > 10 | 0 | 0 | 0 | 0 | 0
6 | CC1(C)O[C@@H]2C[C@H]3[C@@H]4CCC5=CC(=O)CC[C@]5(C)[C@@]4(F)[C@@H](O)C[C@]3(C)[C@]2(C(=O)CCl)O1 [halcinonide] | 106 | 99.4 | 106 | 99 | 104 | 106 | 98.3 | 96.6 | 100 | 102 | 104 | 98 | 97.7 | 95.8 | 96 | 102 | 103 | 96.7 | 89.6 | 97.6 | 101 | 103 | 97.4 | 98.4 | 98.1 | > 10 | > 10 | > 10 | > 10 | > 10 | 0 | 0 | 0 | 0.1 | 0
7 | CC1(C)S[C@@H]2[C@H](N3C(=O)[C@@H](c4ccccc4)NC3(C)C)C(=O)N2[C@H]1C(=O)O [hetacillin] | 98.3 | 92.7 | 96.8 | 93.4 | 86.4 | 99.4 | 94.3 | 104 | 100 | 113 | 95.6 | 101 | 102 | 110 | 93.8 | 100 | 95.7 | 101 | 95 | 99.5 | 109 | 97.6 | 94.7 | 110 | 90.4 | > 10 | > 10 | > 10 | > 10 | > 10 | 0 | 0 | 0 | 0 | 0
